Structures are written as SMILES. Bounds are passed on as bounds.

The text below walks through data of patent publication US5561042A, “Diamine platinum naphthalimide complexes as antitumor agents” (Cancer Therapy and Research Center, priority 1995, dated 1996).

For series [1], the system named is P388 murine leukemic cell line. Put plainly: In vitro growth inhibition (MTT), P388 leukemia. The class given is cell-based. Conditions: 3 days. An excerpt:
(§1) P388 murine leukemic cell line was obtained from the DCT Tumor Repository (National Cancer Institute, Frederick Cancer Research and Development, Frederick Md. 21702). HT29 Human Colon Carcinoma cell line was obtained from the American Type Culture Collection (12301 Parklawn Drive, Rockville, Md. 20852). B16 Melanoma cell line was obtained from DuPont Merck Pharmaceutical Company (Glenolden, Pa. 19036). MCF-7 Human Breast Carcinoma cell line was a gift from Dr. K. Osborne (Department of Medicine, The University of Texas Health Science Center at San Antonio, San Antonio, Tex. 78284). All cell lines were incubated at 37° C. in a humidified atmosphere of 5% CO2 -95% air. Murine B16 melanoma cell line was grown in RPMI 1640 medium supplemented with 10% heat-inactivated fetal bovine serum, 2 mM L-glutamine, 50 units/ml penicillin, 50 μg/ml streptomycin, 25 μg/ml gentamycin, 0.75% sodium bicarbonate, 10 mM HEPES buffer (pH 7.4), and 0.06 mg/ml AntiPPLO. Murine P388 leukemic and the human HT-29 colon adenocarcinoma cell lines were maintained in RPMI 1640 medium supplemented with 10% heat-inactivated fetal bovine serum. MCF-7M human breast adenocarcinoma was maintained in IMEM medium supplemented with 5% non heat-inactivated fetal bovine serum and 1 nM insulin.
(§2) Exponentially growing cells (1-2×10^3 cells, unless specified otherwise) in 0.1 ml medium were seeded on day 0 in a 96-well microtiter plate. On day 1, 0.1 ml aliquots of medium containing graded concentrations of test compounds were added in duplicate to the cell plates. After incubation at 37° C. in a humidified incubator for 3 days (P388, B16) or 6 days (HT-29, MCF-7M), the plates were centrifuged briefly and 100 μl of the growth medium was removed. Cell cultures were incubated with 50 μl of 3-(4,5-dimethylthiazol-2-yl)-2,5-diphenyl-tetrazolium bromide [MTT, 1 mg/ml in Dulbecco's phosphate buffered saline (PBS)] for 4 hr at 37° C. The resulting purple formazan precipitate was solubilized with 200 μl of 0.04N HCl in isopropyl alcohol. Absorbance was monitored in a BioRad Model 3550 Microplate Reader at a test wavelength of 570 nm and a reference wavelength of 630 nm. The absorbance was transferred to a PC 486 computer. The IC50 values were determined by a computer program (EZ-ED50) that fit all of the data to the following four-parameterlogistic equation:
(§3) Y=((Am -Ao)/(1+(X/IC50)^n))+Ao
(§4) where Am is the absorbance of control cells, Ao is the absorbance of cells in the presence of highest agent concentration, Y is the observed absorbance, X is the agent concentration, IC50 is the concentration of agent that inhibits the cell growth by 50% of control cells (based on the absorbance) and n is the slope of the curve.

Series [2] concerns Murine B16 melanoma cell line. Put plainly: In vitro growth inhibition (MTT), B16 melanoma. The class given is cell-based. Conditions: MTT, 3 days.
From the text: as §1, §2, §3, §4

Series [3] deals with poly (dG.dC) - poly (dG.dC). The experiment in a line: Ethidium bromide displacement, poly(dG.dC)-poly(dG.dC). In kind it is binding. Conditions: for Ratio (AT/GC): FI50 poly(dA.dT)-poly(dA.dT) / FI50 poly(dG.dC)-poly(dG.dC); for IC50: ethidium bromide displacement, 1 μM DNA, 1.26 μM ethidium bromide, pH 7.0, read-out: FI50, poly (dG.dC) - poly (dG.dC). The method, then: (§5) A 10× Binding solution was prepared by combining 0.93 ml of an aqueous NaCl solution (5M), 2.0 ml of an aqueous Tris HCl (500 mM) solution, 0.1 ml of an EDTA solution (500 mM) and 46.97 ml of water. The resultant solution was 93 mM in NaCl, 20 mM in Tris HCl, and 1 mM in EDTA. Stock DNA solution were prepared as follows: Poly (dG·dC)-(dG·dC) (ε254=8.4/mM; 27-7910-02), poly(dA·dT)-(dA·dT) (ε262=6.6/mM; 27-7870-02), and lambda DNA (ε260-7.0/mM; 27-4111-01) were purchased from Pharmacia. Solutions were prepared by resuspending either poly (dG·dC)-(dG·dC) or poly(dA·dT)-(dA·dT)in 1 ml of 10× DNA Binding Solution. Lambda DNA is already in solution as purchased.
(§6) Poly (dG·dC)-(dG·dC), poly(dA·dt)-(dA·dt) and lambda DNA concentrations were determined as follows: 980 μl of 10× DNA Binding Solution was pipetted into a 1 ml cuvette. A blank was run on the UV spectrophotometer. 20 μl of the DNA stock of unknown concentration was then added into the cuvette. The sample was then scanned between 210 nm to 500 nm and the absorbance recorded at 254 nm for poly(dG·dC)-(dG·dC), at 262 nm for poly(dA·dT)-(dA·dT) and at 260 nm for lambda DNA. The solution was transferred to a clean tube. This procedure was followed for three different solutions with the absorbance taken as the average of the three. The concentration of poly(dG·dC)-(dG·dC) stock was calculated to be A254 /8.4×1000 (in μM). The concentration of poly(dA·dT)-(dA·dT) stock was calculated to be A262 /6.6×1000 (in μM). The concentration of lambda DNA stock was calculated to be A260 /7.0×1000 (in μM).
(§7) The binding of the bis-naphthalimides to DNA and to synthetic polynucleotide duplexes was determined by an ethidium bromide displacement assay that measures the reduction of fluorescence when ethidium bromide is displaced from DNA (Baguley, 1981). The fluorescence intensity of a 3 ml solution containing 9.3 mM NaCl, 2 mM Tris-HCl (pH 7.0), 100 μM EDTA, 1 μM DNA (in nucleotides) and 1.26 μM ethidium bromide in a quartz cuvette was measured at the excitation (546 nm) and emission (600 nm) wavelengths on a Shimadzu RF5000U spectrofluorometer. Graded concentrations of agent were then added and the fluorescence intensity was measured. The concentration of compound required to reduce the fluorescence intensity by 50% of that of control (FI50) was determined. Therefore, the lower the FI50 the stronger the binding affinity a particular compound has for DNA.
(§8) The ability of bis-naphthalimides of the present invention and the known anti-cancer agents compound 22 and DMP840, (R,R)-2,2'[1,2-ethanediylbis[imino(1-methyl-2,1-ethanediyl)]]-bis[5-nitro- 1H benz[de]isoquinoline-1,3-(2H)dione]dimethanesulfonate, to bind to DNA and to synthetic oligonucleotide duplexes was measured using an ethidium bromide displacement assay. Ethidium bromide, a known DNA intercalator, has no fluorescence in the absence of DNA; however, fluorescence intensity increases when ethidium bromide binds to DNA. The ethidium bromide displacement assay measures the decrease in fluorescence intensity caused by DNA-bound ethidium bromide with DNA interacting agents.

Series [4] deals with poly (dA.dT) - poly (dA.dT). The experiment in a line: Ethidium bromide displacement, poly(dA.dT)-poly(dA.dT). The class given is binding. To be noted: 1 μM DNA, 1.26 μM ethidium bromide, pH 7.0, read-out: FI50, poly (dA.dT) - poly (dA.dT). The procedure:
as §5, §6, §7, §8

In series [5] the target is Lambda DNA. The experiment in a line: Ethidium bromide displacement, lambda DNA. The class given is binding. To be noted: 1 μM DNA, 1.26 μM ethidium bromide, pH 7.0, read-out: FI50, Lambda DNA. The method, then: as §5, §6, §7, §8
Series [6] concerns MCF-7 Human Breast Carcinoma cell line. Put plainly: In vitro growth inhibition (MTT), MCF-7 breast carcinoma. In kind it is cell-based. To be noted: 6 days.
From the text: as §1, §2, §3, §4

Series [7] concerns HT29 Human Colon Carcinoma cell line. Put plainly: In vitro growth inhibition (MTT), HT29 colon carcinoma. The class given is cell-based. Conditions: 6 days.
From the text: as §1, §2, §3, §4

Series [8] deals with B16 murine melanoma. Put plainly: B16 melanoma in vivo, survival of B6D2F1 mice. To be noted: for T/C: mean survival treated/control.
Method: B6D2F1 mice received i.p. inocula of B16 murine melanoma brei prepared from B16 tumors growing subcutaneously in mice (day 0). On day 1, rumored mice were treated with drugs or vehicle control; the route of drug administration and schedule were selected as appropriate for the study in question. If dosing information for agents was not available, the maximum tolerated dose (MTD) was determined in initial dose finding experiments in non-tumored mice. In a typical experiment, drugs were given at their MTD and 1/2 MTD doses i.p. on a daily×5 schedule.
The mean survival times of all groups were calculated, and results were expressed as mean survival of treated mice/mean survival of control mice (T/C)×100%. A T/C value of 150 means that the mice in the treated group lived 50% longer than those of the control group; this is sometimes referred to as the increase in life space, or ILS value.
Mice that survived for 60 days were considered long term survivors, or cures, in the B16 model. The universally accepted cut-off for activity in this model, which has been used for years by the National Cancer Institute, is T/C=125.
Statistics were performed on the data using primarily the log rank p-value test.

Regarding `O=C1c2cccc3cc([N+](=O)[O-])cc(c23)C(=O)N1CCNCCSCCN1C(=O)c2cccc3cc([N+](=O)[O-])cc(c23)C1=O` [Compound 10, 5-[2-(3-Nitronaphthalene-1,8-dicarboximido)ethylamino]-1-(3-nitronaphthalene-1,8-dicarboximido)-3-thiopentane], the IC50 was 56.5 nM in series [1] (Mus musculus, P388, 72 h); 33 nM in series [2] (Mus musculus, B16, 72 h); 770 nM in series [3]; 17200 nM in series [4]; 7370 nM in series [5]; 9 nM in series [6] (Homo sapiens, MCF7, 144 h). In addition, in series [3], the “Ratio (AT/GC)” value turned out to be 22.3.
Consider `O=C1c2cccc3cc([N+](=O)[O-])cc(c23)C(=O)N1CCNCC[S+]([O-])CCN1C(=O)c2cccc3cc([N+](=O)[O-])cc(c23)C1=O` (centres unmarked) [Compound 12], for which the IC50 in series [1] (Mus musculus, P388, 72 h) was determined as 9 nM; in series [2], 6.3 nM; in series [7] it was 1.7 nM; in series [3], 125 nM; in series [4], 6380 nM; in series [5] it was 169 nM. The compound also came in with an IC50 in series [6] of 1.6 nM. For the same compound, the “Ratio (AT/GC)” value in series [3] amounted to 51.06.
Take `O=C1c2cccc3cc([N+](=O)[O-])cc(c23)C(=O)N1CCNCC[S+]([O-])CCN1C(=O)c2cccc3cc([N+](=O)[O-])cc(c23)C1=O` (centres unmarked) [Compound 13]: the IC50 was less than 5 nM in series [1]; 1.6 nM in series [2]; 0.2 nM in series [7]; 18 nM in series [3]; 3850 nM in series [4]; 180 nM in series [5]. The compound also displayed an IC50 in series [6] of less than 0.1 nM. Also, in series [3], the “Ratio (AT/GC)” value was determined as 212.6.
`O=C1c2cccc3cc([N+](=O)[O-])cc(c23)C(=O)N1CCNCCS(=O)(=O)CCN1C(=O)c2cccc3cc([N+](=O)[O-])cc(c23)C1=O` [Compound 14]: the IC50 was 27 nM in series [1] (Mus musculus, P388, 72 h); 86 nM in series [2]; 44 nM in series [7] (Homo sapiens, HT-29, 144 h); 672 nM in series [3]; 43300 nM in series [4]; 24200 nM in series [5]. Further, the IC50 in series [6] stood at 132 nM. For the same compound, the “Ratio (AT/GC)” value in series [3] was 64.38.
Turning to `O=C1c2cccc3cc([N+](=O)[O-])cc(c23)C(=O)N1CCNCCS(=O)(=O)CCN1C(=O)c2cccc3cc([N+](=O)[O-])cc(c23)C1=O` [Compound 15, 5-[2-(3-Nitronaphthalene-1,8-dicarboximido)ethylamino]-1-(3-nitronaphthalene-1,8-dicarboximido)-3-sulfonylpentane hydromethanesulfonate], the IC50 in series [1] is 29.9 nM; in series [2], 34 nM; in series [7], 22 nM; in series [3] it was 118 nM; in series [4], 17100 nM; in series [5], 1030 nM. The same compound had an IC50 in series [6] of 36 nM. Besides, the “Ratio (AT/GC)” value in series [3] turned out to be 144.4.
On to `O=C1c2cccc3cc([N+](=O)[O-])cc(c23)C(=O)N1CCNCCNCCN1C(=O)c2cccc3cc([N+](=O)[O-])cc(c23)C1=O` [Compound 22, 2,2'[1,2-ethanediylbis[imino(2,1-ethanediyl)]]-bis[5-nitro-1H-benz[de]isoquinoline-1,3-(2H)-dione]dimethanesulfonate], for which, in series [3], the “Ratio (AT/GC)” value is reported as 16.5. Also, in series [8] (2.5 mg/kg, q.d. × 5, i.p.), the “60-Day Survivors” value is recorded as 0, the “Wt. Ch. (%) (Day 7)” value was -0.17% and the T/C worked out at 141%.
For the compound `O=C1c2cccc3cc([N+](=O)[O-])cc(c23)C(=O)N1CCNCCNCCN1C(=O)c2cccc3cc([N+](=O)[O-])cc(c23)C1=O` [Compound 23, 2,2'[1,2-ethanediylbis[imino(2,1-ethanediyl)]]-bis[5-nitro-1H-benz[de]isoquinoline-1,3-(2H)-dione]], in series [8] (2.5 mg/kg, q.d. × 5, i.p.), the “60-Day Survivors” value amounted to 0, the “Wt. Ch. (%) (Day 7)” value worked out at 0.95% and the T/C came out at 162%.
On to `O=P1(N(CCCl)CCCl)NCCCO1` (centres unmarked) [Cytoxan], for which, in series [8] (150 mg/kg, q.d. × 5, i.p.), the “60-Day Survivors” value is 0, the “Wt. Ch. (%) (Day 7)” value was -12.2% and the T/C worked out at 175%. Also, in series [8] (300 mg/kg, q.d. × 1, i.p.), the “60-Day Survivors” value is on record as 0, the “Wt. Ch. (%) (Day 7)” value is -6.6% and the T/C worked out at 197%. Besides, the highest effective dose in series [8] (mouse, in vivo) worked out at 300 mg/kg.
